Assay [1] deals with HCV genotype 1b subgenomic replicon (ET cell line). Put plainly: HCV replicon assay, genotype 1b (luciferase). Type of assay: cell-based. The conditions noted are these: genotype 1b replicon ET cell line, luciferase activity at 48 hours. The method, then: (§1) Protocol for Testing and Data Analysis of Compounds in the HCV Replicon Assay
(§2) Compounds were assayed for activity against HCV using the genotype 1a and 1b subgenomic replicon model systems. Stable cell lines bearing the genotype 1a and 1b replicons were used for screening of compounds. Both replicons are bicistronic and contain the firefly luciferase gene. The ET cell line is stably transfected with RNA transcripts harboring a I389luc-ubi-neo/NS3-3′/ET replicon with firefly luciferase-ubiquitin-neomycin phosphotransferase fusion protein and EMCV-IRES driven NS3-5B polyprotein containing the cell culture adaptive mutations (E1202G; T1280I; K1846T) (Krieger at al, 2001 and unpublished). The genotype 1a replicon is a stable cell line contains the H77 NS3-5B polyprotein sequence, modified to contain the firefly luciferase gene and encode for neomycin resistance. The genotype 1a replicon contains several adaptive changes (NS4B Q31H, NS5A K68R, NS5A S232I). The cells were grown in DMEM, supplemented with 10% fetal calf serum, 2 mM Glutamine, Penicillin (100 IU/mL)/Streptomycin (100 μg/mL), lx nonessential amino acids, and 250-500 μg/mL G418 (“Geneticin”). They were all available through Life Technologies (Bethesda, Md.). The cells were plated at 5×10^3 cells/well in 384 well plates containing compounds. The final concentration of compounds ranged between 0.03 pM to […] and the final DMSO concentration of 0.5-1%.
(§3) Luciferase activity was measured 48 hours later by adding a Steady glo reagent (Promega, Madison, Wis.). Percent inhibition of replication data was plotted relative to no compound control. Under the same condition, cytotoxicity of the compounds was determined using cell titer glo (Promega, Madison, Wis.). EC50s were determined from an 11 point dose response curve using 3-4-fold serial dilution for each compound, which spans a concentration range >1000 fold. The level of inhibition for each compound was determined with Activity Base or with BioAssay plus the Excel XC50 module. Percent inhibition was determined with the following equation where the cross-talk corrected value is the value from the test well, the compound positive control mean is the average value of the wells with no compound present, and the DMSO negative control mean is the average value of the wells with DMSO but no cells present.
(§4) [formula] These normalized values are exported to EC50 where they are plotted against the molar compound concentrations using the standard four parameter logistic equation:
(§5) [formula] Where: • A=minimum y D=slope factor • B=maximum y x=log10 compound concentration [M] • C=log10EC50 pEC50=−C

Assay [2] deals with HCV genotype 1a subgenomic replicon. Nature of the assay: HCV replicon assay, genotype 1a (luciferase). Type of assay: cell-based. The conditions noted are these: read-out: Replicon 1A EC50. The method, then: as §1, §2, §3, §4, §5
A general note: In antiviral work, replicon cells carry a viral genome segment that copies itself.

Molecules are shown by their SMILES. Like-named read-outs stand apart in the source and are kept apart here.

As usually defined, the EC50 is the concentration that produces a half-maximal response. `COC(=O)N[C@H](C(=O)N1[C@H](c2ncc(-c3ccc4c(c3)-c3ccc(-c5cnc([C@@H]6C[C@@H]7CCC[C@@H]7N6C(=O)[C@@H](NC(=O)OC)[C@@H](C)O)[nH]5)cc3-4)[nH]2)C[C@@H]2CCC[C@@H]21)[C@@H](C)O` [Example 1]: the EC50 in assay [1] (Hepatitis C virus) is 6 pM; in assay [2] (Hepatitis C virus, 48 h), 11 pM.
The like results for `COC(=O)N[C@H](C(=O)N1[C@H](c2ncc(-c3ccc4c(c3)-c3ccc(-c5cnc([C@@H]6C[C@@H]7CCC[C@@H]7N6C(=O)[C@@H](NC(=O)OC)[C@@H](C)OC)[nH]5)cc3-4)[nH]2)C[C@@H]2CCC[C@@H]21)[C@@H](C)OC` [Example 2, dimethyl ((2S,2′S,3R,3′R)-((2S,2′S,3aS,3a′S,6aS,6a′S)-2,2′-(5,5′-(biphenylene-2,6-diyl)bis(1H-imidazole-5,2-diyl))bis(hexahydrocyclopenta[b]pyrrole-2,1(2H)-diyl))bis(3-methoxy-1-oxobutane-2,1-diyl))dicarbamate] were, in that order, 8 pM and 10 pM.
For `COC(=O)N[C@H](C(=O)N1[C@H](c2nc(-c3ccc4c(c3)-c3ccc(-c5c[nH]c([C@@H]6C[C@@H]7CCC[C@@H]7N6C(=O)[C@@H](NC(=O)OC)[C@@H](C)OC)n5)cc3-4)c[nH]2)C[C@@H]2CCC[C@@H]21)[C@@H](C)O` [Example 3, Methyl [(1S,2R)-1-{[(2S,3aS,6aS)-2-[4-(6-{2-[(2S,3aS,6aS)-1-((2S,3R)-3-hydroxy-2-{[(methyloxy)carbonyl]amino}butanoyl)octahydrocyclopenta[b]pyrrol-2-yl]-1H-imidazol-4-yl}-2-biphenylenyl)-1H-imidazol-2-yl]hexahydrocyclopenta[b]pyrrol-1(2H)-yl]carbonyl}-2-(methyloxy)propyl]carbamate], in that order: 8 pM and 13 pM.
For the compound `COC(=O)N[C@H](C(=O)N1[C@H](c2ncc(-c3ccc4c(c3)Cc3cc(-c5cnc([C@@H]6C[C@H]7CCC[C@H]7N6C(=O)[C@H](NC(=O)OC)[C@H](C)OC)[nH]5)ccc3-4)[nH]2)C[C@@H]2CCC[C@@H]21)[C@@H](C)OC` [Example 4], the EC50 in assay [1] (Hepatitis C virus) was found to be 20 pM; in assay [2] (Hepatitis C virus, 48 h) it was 40 pM.
For `COC(=O)N[C@H](C(=O)N1[C@H](c2ncc(-c3ccc4c(c3)Cc3ccc(-c5cnc([C@@H]6C[C@H]7CCC[C@H]7N6C(=O)[C@H](NC(=O)OC)[C@H](C)OC)[nH]5)cc3C4)[nH]2)C[C@@H]2CCC[C@@H]21)[C@@H](C)OC` [Example 5, dimethyl ((2S,2′S,3R,3′R)-((2S,2′S,3aS,3a′S,6aS,6a′S)-2,2′-(5,5′-(9,10-dihydroanthracene-2,6-diyl)bis(1H-imidazole-5,2-diyl))bis(hexahydrocyclopenta[b]pyrrole-2,1(2H)-diyl))bis(3-methoxy-1-oxobutane-2,1-diyl))dicarbamate], the EC50 is 20 pM in assay [1] (Hepatitis C virus) and 32 pM in assay [2] (Hepatitis C virus, 48 h).
The like results for `COC(=O)N[C@H](C(=O)N1[C@H](c2ncc(-c3ccc4c(c3)CCc3cc(-c5cnc([C@@H]6C[C@H]7CCC[C@H]7N6C(=O)[C@H](NC(=O)OC)[C@H](C)OC)[nH]5)ccc3-4)[nH]2)C[C@@H]2CCC[C@@H]21)[C@@H](C)OC` [Example 6, Dimethyl ((2S,2′S,3R,3′R)-((2S,2′S,3aS,3a′S,6aS,6a′S)-2,2′-(5,5′-(9,10-dihydrophenanthrene-2,7-diyl)bis(1H-imidazole-5,2-diyl))bis(hexahydrocyclopenta[b]pyrrole-2,1(2H)-diyl))bis(3-methoxy-1-oxobutane-2,1-diyl))dicarbamate] were, in that order, 16 pM and 16 pM.
For `COC(=O)N[C@H](C(=O)N1[C@H](c2ncc(-c3ccc4c5ccc(-c6cnc([C@@H]7C[C@@H]8CCC[C@@H]8N7C(=O)[C@@H](NC(=O)OC)[C@@H](C)OC)[nH]6)cc5n(C)c4c3)[nH]2)C[C@@H]2CCC[C@@H]21)[C@@H](C)OC` [Example 7, dimethyl ((2S,2′S,3R,3′R)-((2S,2′S,3aS,3a′S,6aS,6a′S)-2,2′-(5,5′-(9-methyl-9H-carbazole-2,7-diyl)bis(1H-imidazole-5,2-diyl))bis(hexahydrocyclopenta[b]pyrrole-2,1(2H)-diyl))bis(3-methoxy-1-oxobutane-2,1-diyl))dicarbamate], the EC50 is 32 pM in assay [1] and 160 pM in assay [2] (genotype 1a replicon stable cell line (H77 NS3-5B), luciferase activity at 48 hours).
Regarding `COC(=O)N[C@H](C(=O)N1[C@@H]2CCC[C@@H]2C[C@H]1c1ncc(-c2ccc3c(c2)C(F)(F)c2cc(-c4cnc([C@@H]5C[C@@H]6CCC[C@@H]6N5C(=O)[C@@H](NC(=O)OC)[C@@H](C)OC)[nH]4)ccc2-3)[nH]1)[C@@H](C)OC` [Example 8, Dimethyl ((2S,2′S,3R,3′R)-((2S,2′S,3aS,3a′S,6aS,6a′S)-2,2′-(5,5′-(9,9-difluoro-9H-fluorene-2,7-diyl)bis(1H-imidazole-5,2-diyl))bis(hexahydrocyclopenta[b]pyrrole-2,1(2H)-diyl))bis(3-methoxy-1-oxobutane-2,1-diyl))dicarbamate], the EC50 in assay [1] (Hepatitis C virus) came out at 16 pM; in assay [2] (Hepatitis C virus, 48 h) it was 32 pM.
The like results for `COC(=O)N[C@H](C(=O)N1[C@@H]2CCC[C@@H]2C[C@H]1c1ncc(-c2ccc3c(c2)S(=O)(=O)c2cc(-c4cnc([C@@H]5C[C@@H]6CCC[C@@H]6N5C(=O)[C@@H](NC(=O)OC)[C@@H](C)OC)[nH]4)ccc2-3)[nH]1)[C@@H](C)OC` [Example 9] were, in that order, 32 pM and 80 pM.
The like results for `COC(=O)N[C@H](C(=O)N1[C@@H]2CCC[C@@H]2C[C@H]1c1ncc(-c2ccc3c(c2)Oc2ccc(-c4cnc([C@@H]5C[C@@H]6CCC[C@@H]6N5C(=O)[C@@H](NC(=O)OC)[C@@H](C)OC)[nH]4)cc2O3)[nH]1)[C@@H](C)OC` [Example 10, Dimethyl ((2S,2′S,3R,3′R)-((2S,2′S,3aS,3a′S,6aS,6a′S)-2,2′-(5,5′-(dibenzo[b,e][1,4]dioxine-2,7-diyl)bis(1H-imidazole-5,2-diyl))bis(hexahydrocyclopenta[b]pyrrole-2,1(2H)-diyl))bis(3-methoxy-1-oxobutane-2,1-diyl))dicarbamate] were, in that order, 10 pM and 10 pM.

The record behind these values is US8889726B2, “Chemica compounds” (priority 2011, dated 2014).
